The text below walks through data of patent US20260116920A1, “HUMAN TRANSFERRIN RECEPTOR BINDING PEPTIDE” (PEPTIDREAM INC., priority 2021, published 2026).

SMILES strings stand for the structures. Starred links: 1 amine or outer side, 2 acyl side, 3 side chain; linkers in the order of their positions; H or OH if unused. Positions of bridges follow the written chain, without caps; N, C: chain ends. Non-standard residues stand in square brackets, D forms with d. Residues, ends and D or L forms follow the SMILES beside them. Groups on a side chain read outwards from the residue. *: point of attachment. Trp(1-CH2COOH) = N[C@@H](Cc1cn(CC(=O)O)c2ccccc12)C(=O)O; Meglumine = CN(C[C@H](O)[C@@H](O)[C@H](O)[C@H](O)CO)*; NMePhe(4-COOH) = CN[C@@H](Cc1ccc(C(=O)O)cc1)C(=O)O; X1 = O=C([C@H](Cc1cccc(C(=O)[*:3])c1)N[*:1])[*:2]; Nle(6-morpholino) = N[C@@H](CCCCN1CCOCC1)C(=O)O; Phe(3-COOH) = N[C@@H](Cc1cccc(C(=O)O)c1)C(=O)O; NH(CH2CH2O)8Me = COCCOCCOCCOCCOCCOCCOCCOCCN*; NMePhe(3-Cl) = CN[C@@H](Cc1cccc(Cl)c1)C(=O)O; 3Pal(6-NH2) = Nc1ccc(C[C@H](N)C(=O)O)cn1; Lys(N3) = [N-]=[N+]=NCCCC[C@H](N)C(=O)O; NMeY = CN[C@@H](Cc1ccc(O)cc1)C(=O)O; NH(CH2CH2O)4Me = COCCOCCOCCOCCN*; 3Pal = N[C@@H](Cc1cccnc1)C(=O)O; 4Pal = N[C@@H](Cc1ccncc1)C(=O)O; PEG4 = NCCOCCOCCOCCOCCC(=O)O; Carboxymethyl = O=C(O)C*; CO = O=C([*:1])[*:2]

For the first experiment, the target named is T1, human transferrin receptor (hTfR) (Homo sapiens, UniProt P02786).
T1 construct: made in house
T1 sequence (P02786 89-760 limits assumed): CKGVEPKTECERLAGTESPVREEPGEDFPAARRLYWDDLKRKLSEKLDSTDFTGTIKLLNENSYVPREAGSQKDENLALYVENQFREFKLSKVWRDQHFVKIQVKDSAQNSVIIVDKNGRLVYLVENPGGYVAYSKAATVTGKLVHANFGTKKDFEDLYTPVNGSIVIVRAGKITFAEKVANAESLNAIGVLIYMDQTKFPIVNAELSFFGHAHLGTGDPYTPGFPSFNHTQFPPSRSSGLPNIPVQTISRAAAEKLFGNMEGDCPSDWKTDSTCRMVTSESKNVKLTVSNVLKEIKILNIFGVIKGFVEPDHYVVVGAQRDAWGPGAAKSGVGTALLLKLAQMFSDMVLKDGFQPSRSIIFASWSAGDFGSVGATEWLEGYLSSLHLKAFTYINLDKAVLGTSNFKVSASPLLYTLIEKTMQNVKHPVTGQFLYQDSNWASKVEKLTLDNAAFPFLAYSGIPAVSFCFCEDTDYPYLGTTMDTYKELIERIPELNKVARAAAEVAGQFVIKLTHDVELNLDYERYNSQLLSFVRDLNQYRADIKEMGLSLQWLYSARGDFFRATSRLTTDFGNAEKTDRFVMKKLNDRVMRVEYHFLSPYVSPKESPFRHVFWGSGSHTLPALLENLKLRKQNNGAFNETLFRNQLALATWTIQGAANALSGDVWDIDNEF
Briefly: Evaluation of molecular interaction between transferrin receptor (hTfR) and peptide using surface plasmon resonance (SPR). The conditions noted are these: KD class for binding to hTfR by SPR; peptide with the linker shown in the same line; 'low signal indicates no activity'; read-out: SPR. The experiment is classed as binding. In short, it runs like this: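 Recombinant hTfR dimer (0.5 μM) immobilized on Ni-loaded NTA chip via EDC/NHS, ethanolamine-capped. Peptides at 5–100 nM in HEPES pH 8.0 buffer with 150 mM NaCl, 0.05% Tween 20, 0.1% BSA, 1.0% DMSO, flowed by single-cycle kinetics; KD from least-squares fit of sensorgrams.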
Consider `CC[C@H](C)[C@@H]1NC(=O)[C@H](Cc2ccc(OC)cc2)NC(=O)[C@H](Cc2ccc(O)cc2)NC(=O)[C@H](CC(N)=O)NC(=O)[C@H](Cc2c[nH]c3ccccc23)N(C)C(=O)[C@H](C(C)C)NC(=O)[C@H](Cc2cccc(Cl)c2)N(C)C(=O)[C@H](C(C)C)NC(=O)[C@H](C)NC(=O)CSC[C@@H](C(=O)NCCOCCOCCOCCOCCC(N)=O)NC(=O)[C@H](Cc2ccc(O)cc2)N(C)C(=O)[C@H](Cc2ccc(O)cc2)NC(=O)[C@H](CCCNC(=N)N)NC(=O)[C@H](CCCNC(=N)N)NC(=O)[C@H]([C@@H](C)CC)NC1=O` [894_0293], for which the Kd was 1 to 100 nM.
The same measure, in the same setting: to `CC[C@H](C)[C@@H]1NC(=O)[C@H](Cc2ccc(OC)cc2)NC(=O)[C@H](Cc2ccc(O)cc2)NC(=O)[C@H](CC(N)=O)NC(=O)[C@H](Cc2c[nH]c3ccc(Cl)cc23)NC(=O)[C@H](C(C)C)NC(=O)[C@H](Cc2ccccc2)N(C)C(=O)[C@H](C(C)C)NC(=O)[C@H](C)NC(=O)CSC[C@@H](C(=O)NCC(=O)N[C@@H](CCCCN=[N+]=[N-])C(N)=O)NC(=O)[C@H](Cc2ccc(O)cc2)N(C)C(=O)[C@H](Cc2ccccc2)NC(=O)[C@H](CCCNC(=N)N)NC(=O)[C@H](CCCNC(=N)N)NC(=O)[C@H]([C@@H](C)CC)NC1=O` [894_3154] belongs 1 to 100 nM.
Still for that read-out and setting: to `CC[C@H](C)[C@@H]1NC(=O)[C@H](Cc2ccc(OC)cc2)NC(=O)[C@H](Cc2ccc(O)cc2)NC(=O)[C@H](CC(N)=O)NC(=O)[C@H](Cc2c[nH]c3ccc(Cl)cc23)NC(=O)[C@H](C(C)C)NC(=O)[C@H](Cc2ccc(F)cc2)N(C)C(=O)[C@H](C(C)C)NC(=O)[C@H](C)NC(=O)CSC[C@@H](C(=O)NCC(=O)N[C@@H](CCCCN=[N+]=[N-])C(N)=O)NC(=O)[C@H](Cc2ccc(O)cc2)N(C)C(=O)[C@H](Cc2ccccc2)NC(=O)[C@H](CCCNC(=N)N)NC(=O)[C@H](CCCNC(=N)N)NC(=O)[C@H]([C@@H](C)CC)NC1=O` [894_3156] belongs 1 to 100 nM.

Staying with this experiment, now noted: peptide with linker, surface plasmon resonance; read-out: SPR (KD class for binding to hTfR).
As to `CC[C@H](C)[C@@H]1NC(=O)[C@H](Cc2ccc(OCC(=O)O)cc2)NC(=O)[C@H](Cc2ccc(O)cc2)NC(=O)[C@H](CC(N)=O)NC(=O)[C@H](Cc2cn(CC(=O)O)c3ccccc23)NC(=O)[C@H](C(C)C)NC(=O)[C@H](Cc2cccc(Cl)c2)N(C)C(=O)[C@H](C(C)C)NC(=O)[C@H](C)NC(=O)CSC[C@@H](C(=O)NCCOCCOCCOCCOCCC(N)=O)NC(=O)[C@H](Cc2ccc(O)cc2)N(C)C(=O)[C@H](Cc2cccc(C(=O)O)c2)NC(=O)[C@H](CCCCN2CCOCC2)NC(=O)[C@H](CCC(=O)NCCOCCOCCOCCOCCOCCOCCOCCOC)NC(=O)[C@H]([C@@H](C)CC)NC1=O` [compound 217] ({CH2CO}-AV[NMePhe(3-Cl)]V[Trp(1-CH2COOH)]NYY(Carboxymethyl)IIE(NH(CH2CH2O)8Me)[Nle(6-morpholino)][Phe(3-COOH)][NMeY]C[PEG4]-NH2; thioether N-15), the Kd fell in the range of 1 to 100 nM.

The same experiment, now with this note: surface plasmon resonance, binding to hTfR; KD class symbol; read-out: SPR (KD value).
On to `CC[C@H](C)[C@@H]1NC(=O)[C@H](Cc2ccc(OC)cc2)NC(=O)[C@H](Cc2ccc(N)nc2)NC(=O)[C@H](CC(N)=O)NC(=O)[C@H](Cc2c[nH]c3ccccc23)NC(=O)[C@H](C(C)C)NC(=O)[C@H](Cc2cccc(Cl)c2)N(C)C(=O)[C@H](C(C)C)NC(=O)[C@H](C)NC(=O)CSC[C@@H](C(=O)NCCOCCOCCOCCOCCC(N)=O)NC(=O)[C@H](Cc2ccc(O)cc2)N(C)C(=O)[C@H](Cc2ccccc2)NC(=O)[C@H](CCCNC(=N)N)NC(=O)[C@H](CCCNC(=N)N)NC(=O)[C@H]([C@@H](C)CC)NC1=O` [compound 57] ({CH2CO}-AV[NMePhe(3-Cl)]VWN[3Pal(6-NH2)]Y(Me)IIRRF[NMeY]C[PEG4]-NH2; thioether N-15), for which the Kd was in the range of 1 to 100 nM.
On the same count and under the same terms, in the case of `CC[C@H](C)[C@@H]1NC(=O)[C@H](Cc2ccc(OCC(=O)O)cc2)NC(=O)[C@H](Cc2ccc(O)cc2)NC(=O)[C@H](CC(N)=O)NC(=O)[C@H](Cc2c[nH]c3ccccc23)NC(=O)[C@H](C(C)C)NC(=O)[C@H](Cc2cccc(Cl)c2)N(C)C(=O)[C@H](C(C)C)NC(=O)[C@H](C)NC(=O)CSC[C@@H](C(=O)NCCOCCOCCOCCOCCC(N)=O)NC(=O)[C@H](Cc2ccc(C(=O)NCCOCCOCCOCCOC)cc2)N(C)C(=O)[C@H](Cc2cccc(C(=O)NCCOCCOCCOCCOC)c2)NC(=O)[C@H](CCCNC(=N)N)NC(=O)[C@H](CCC(N)=O)NC(=O)[C@H]([C@@H](C)CC)NC1=O` [compound 127] ({CH2CO}-AV[NMePhe(3-Cl)]VWNYY(Carboxymethyl)IIQR[X1](NH(CH2CH2O)4Me)[NMePhe(4-COOH)](NH(CH2CH2O)4Me)C[PEG4]-NH2; thioether N-15) it was 1 to 100 nM; in that of `CC[C@H](C)[C@@H]1NC(=O)[C@H](Cc2cccnc2)NC(=O)[C@H](Cc2ccc(O)cc2)NC(=O)[C@H](CC(N)=O)NC(=O)[C@H](Cc2c[nH]c3ccccc23)NC(=O)[C@H](C(C)C)NC(=O)[C@H](Cc2cccc(Cl)c2)N(C)C(=O)[C@H](C(C)C)NC(=O)[C@H](C)NC(=O)CSC[C@@H](C(=O)NCC(=O)N[C@H](CCCCNC(=O)N(C)C[C@H](O)[C@@H](O)[C@H](O)[C@H](O)CO)C(=O)N[C@H](CCCCNC(=O)N(C)C[C@H](O)[C@@H](O)[C@H](O)[C@H](O)CO)C(=O)N[C@H](CCCCNC(=O)N(C)C[C@H](O)[C@@H](O)[C@H](O)[C@H](O)CO)C(=O)N[C@H](CO)C(=O)N[C@H](CO)C(=O)N[C@@H](CCCCN=[N+]=[N-])C(N)=O)NC(=O)[C@H](Cc2ccc(O)cc2)N(C)C(=O)[C@H](Cc2ccncc2)NC(=O)[C@H](CCCNC(=N)N)NC(=O)[C@H](CCCNC(=N)N)NC(=O)[C@H]([C@@H](C)CC)NC1=O` [compound 68] ({CH2CO}-AV[NMePhe(3-Cl)]VWNY[3Pal]IIRR[4Pal][NMeY]CG[dK]([CO-Meglumine])[dK]([CO-Meglumine])[dK]([CO-Meglumine])[dS][dS][Lys(N3)]-NH2; thioether N-15), 1 to 100 nM; in that of `CC[C@H](C)[C@@H]1NC(=O)[C@H](Cc2ccc(OCC(=O)O)cc2)NC(=O)[C@H](Cc2ccc(O)cc2)NC(=O)[C@H](CC(N)=O)NC(=O)[C@H](Cc2c[nH]c3ccccc23)NC(=O)[C@H](C(C)C)NC(=O)[C@H](Cc2cccc(Cl)c2)N(C)C(=O)[C@H](C(C)C)NC(=O)[C@H](C)NC(=O)CSC[C@@H](C(=O)NCCOCCOCCOCCOCCC(N)=O)NC(=O)[C@H](Cc2ccc(O)cc2)N(C)C(=O)[C@H](Cc2ccccc2)NC(=O)[C@H](CCCCN)NC(=O)[C@H](CCC(=O)NCCOCCOCCOCCOC)NC(=O)[C@H]([C@@H](C)CC)NC1=O` [compound 121] ({CH2CO}-AV[NMePhe(3-Cl)]VWNYY(Carboxymethyl)IIE(NH(CH2CH2O)4Me)KF[NMeY]C[PEG4]-NH2; thioether N-15), 1 to 100 nM.
The same measure, in the same setting: to `CC[C@H](C)[C@@H]1NC(=O)[C@H](Cc2cccnc2)NC(=O)[C@H](Cc2ccc(N)nc2)NC(=O)[C@H](CC(N)=O)NC(=O)[C@H](Cc2cn(CC(=O)O)c3ccccc23)NC(=O)[C@H](C(C)C)NC(=O)[C@H](Cc2cccc(Cl)c2)N(C)C(=O)[C@H](C(C)C)NC(=O)[C@H](C)NC(=O)CSC[C@@H](C(=O)NCCOCCOCCOCCOCCC(N)=O)NC(=O)[C@H](Cc2ccc(O)cc2)N(C)C(=O)[C@H](Cc2ccncc2)NC(=O)[C@H](CCC(=O)NCCOCCOCCOCCOCCOCCOCCOCCOC)NC(=O)[C@H](CCCNC(=N)N)NC(=O)[C@H]([C@@H](C)CC)NC1=O` [compound 86] ({CH2CO}-AV[NMePhe(3-Cl)]V[Trp(1-CH2COOH)]N[3Pal(6-NH2)][3Pal]IIRE(NH(CH2CH2O)8Me)[4Pal][NMeY]C[PEG4]-NH2; thioether N-15) belongs 100 to 1000 nM.
